# From ChEMBL document CHEMBL1201862, “PubChem BioAssay data set” (2004)
#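 A five-concentration, 48-hour dose response in 96-well plates underlies each endpoint, interpolated linearly between surrounding concentrations. The concentration for 50% growth inhibition is given as GI50.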 Calls of active or inactive are those of the source. Rule as the data show it: active = GI50 up to about 1.1 µM and inactive = higher.
# Tests used:
# Test in all cases: NCI anticancer screen, dose series, 48 h
# [1] = test system: T47D
# [2] = test system: HOP-18
# [3] = test system: DLD-1
# [4] = test system: DMS-114
# [5] = test system: M19-MEL
# [6] = test system: DMS-273
# [7] = test system: SNB-78
# [8] = test system: XF498
# [9] = test system: RXF 631
compound,measurement,setting,value
CCCC(c1cc(C(C)(C)C)c(O)cc1C)c1cc(C(C)(C)C)c(O)cc1C,GI50,[1],2.56 µM (inactive)
O=C(O)/C=C\C(=O)Nc1ccccn1,GI50,[1],> 100 µM (inactive)
CN1c2ccccc2C(=O)NC12CCN(Cc1ccccc1)CC2,GI50,[1],70.3 µM (inactive)
Cc1c(C(=O)Nc2ccc(Cl)c(C(F)(F)F)c2)oc2cc(O)ccc2/c1=N\NC(N)=S,GI50,[2],> 100 µM (inactive)
same,GI50,[3],> 100 µM (inactive)
same,GI50,[4],> 100 µM (inactive)
same,GI50,[5],> 100 µM (inactive)
same,GI50,[6],> 100 µM (inactive)
same,GI50,[7],> 100 µM (inactive)
same,GI50,[8],> 100 µM (inactive)
O=[N+]([O-])C(/C=C(\Cl)n1nnc2ccccc21)=C(/Cl)n1nnc2ccccc21,GI50,[1],> 100 µM (inactive)
CSc1nc(C#N)c(N)n1C,GI50,[1],> 100 µM (inactive)
CC(=O)Nc1ccc2c(C)c3c4ccccc4n(C)c3nc2n1,GI50,[1],18.4 µM (inactive)
COc1cc(/C=N\c2ccc(C(C)C)cc2)cc(OC)c1OC,GI50,[2],> 100 µM (inactive)
same,GI50,[3],> 100 µM (inactive)
same,GI50,[4],49.5 µM (inactive)
same,GI50,[5],> 92 µM (inactive)
same,GI50,[6],> 72.4 µM (inactive)
same,GI50,[7],> 100 µM (inactive)
same,GI50,[8],> 100 µM (inactive)
CCC1c2cc3n(c(=O)c2COC1O)Cc1c-3nc2ccccc2c1Cl (configuration not stated),GI50,[2],> 75.7 µM (inactive)
same,GI50,[3],99.1 µM (inactive)
same,GI50,[4],49.4 µM (inactive)
same,GI50,[5],69.3 µM (inactive)
same,GI50,[6],4.4 µM (inactive)
same,GI50,[7],> 100 µM (inactive)
same,GI50,[8],> 100 µM (inactive)
CC(C)(C)C1CCC2(CC1)CCN(CCCN1CCOCC1)CC2,GI50,[3],24.4 µM (inactive)
same,GI50,[4],16.5 µM (inactive)
same,GI50,[5],12.5 µM (inactive)
same,GI50,[9],14.4 µM (inactive)
same,GI50,[6],19.3 µM (inactive)
same,GI50,[1],42.9 µM (inactive)
same,GI50,[7],38.5 µM (inactive)
O=C1CCC(=O)N1CNc1ccc2c(c1)Sc1ccccc1O2,GI50,[1],25.2 µM (inactive)
O=C(Nc1ccc(Cl)c(Cl)c1)C(=O)C(C1OC(=O)c2ccccc21)[N+](=O)[O-] (configuration not stated),GI50,[1],> 100 µM (inactive)
Cc1cc2c(O)c(c1)COCc1cc(C)cc(c1O)COCc1cc(C)cc(c1O)COC2,GI50,[1],> 100 µM (inactive)
Cc1cc(Cl)cc2c1NC(=O)/C2=N\Nc1ccccc1[N+](=O)[O-],GI50,[1],> 100 µM (inactive)
COc1nc(OC)c2c(=O)oc(-c3ccccc3)cc2n1,GI50,[4],> 100 µM (inactive)
same,GI50,[5],> 100 µM (inactive)
same,GI50,[6],> 100 µM (inactive)
same,GI50,[7],> 100 µM (inactive)
O=C(O)CSCC(=O)Nc1ccc2cccc3c2c1CC3,GI50,[1],> 100 µM (inactive)
O=C1C(Cl)=C(N2CCN(c3ccccn3)CC2)C(=O)c2ncccc21,GI50,[1],1.81 µM (inactive)
Cn1c(CO)ccc1-c1ccc(-c2ccc[se]2)[se]1,GI50,[1],0.155 µM (active)
CCOC(=O)C1=C(C)NC(=O)NC1c1ccc(OC)cc1OC (configuration not stated),GI50,[2],> 100 µM (inactive)
same,GI50,[3],> 100 µM (inactive)
same,GI50,[4],> 100 µM (inactive)
same,GI50,[5],> 100 µM (inactive)
same,GI50,[6],> 100 µM (inactive)
same,GI50,[7],> 100 µM (inactive)
same,GI50,[8],> 100 µM (inactive)
C[C@H](CCc1nc(C#N)c(N)o1)[C@H]1CC[C@H]2[C@@H]3[C@@H](O)CC4C[C@@H](O)CC[C@]4(C)[C@H]3C[C@@H](O)[C@]12C (some centres not stated),GI50,[1],27.5 µM (inactive)
O=C(c1ccccc1)N1N=C(C(F)(F)F)CC1(O)C(F)(F)F (configuration not stated),GI50,[1],> 100 µM (inactive)
COc1cc(NS(=O)(=O)c2ccc(C)cc2)c2nccnc2c1,GI50,[2],93.5 µM (inactive)
same,GI50,[3],30.3 µM (inactive)
same,GI50,[4],14.6 µM (inactive)
same,GI50,[5],19.5 µM (inactive)
same,GI50,[6],23.6 µM (inactive)
same,GI50,[8],29 µM (inactive)
CCOC(=O)C1=C(Nc2cccc3ccccc23)OCC1=O,GI50,[3],> 100 µM (inactive)
same,GI50,[9],> 100 µM (inactive)
same,GI50,[6],> 100 µM (inactive)
same,GI50,[7],> 100 µM (inactive)
same,GI50,[8],> 100 µM (inactive)
CC(=NNC(=S)Nc1ccccc1)c1cccc(C(C)=NNC(=S)Nc2ccccc2)n1,GI50,[1],5.96 µM (inactive)
Cc1ccc(C2(N3CCOCC3)OC(C)(C)c3cccc4cccc2c34)cc1 (configuration not stated),GI50,[1],21.7 µM (inactive)
COc1ccc2c3c1OC1C(=O)C=CC4(O)C(C2)NCC[C@@]314 (some centres not stated),GI50,[1],0.968 µM (active)
CC(=O)NC(CCCN(Cc1ccccc1)C(=O)NCCCl)C(=O)NCc1ccccc1 (configuration not stated),GI50,[2],> 100 µM (inactive)
same,GI50,[3],> 100 µM (inactive)
same,GI50,[4],> 100 µM (inactive)
same,GI50,[5],> 100 µM (inactive)
same,GI50,[6],> 100 µM (inactive)
same,GI50,[7],> 100 µM (inactive)
O=C(c1ccc(Cl)c(Cl)c1)N(Cc1cccnc1)C(=S)N(Cc1cccnc1)C(=O)c1ccc(Cl)c(Cl)c1,GI50,[1],26.7 µM (inactive)
O=C1CC(c2ccco2)C2(C(=O)NC(=O)NC2=O)C(c2ccco2)C1 (configuration not stated),GI50,[1],> 75 µM (inactive)
C/C(=N\NC(=S)NC(C)C)c1nc2cccnc2[nH]1,GI50,[1],0.33 µM (active)
CCC1=CC2CN3Cn4c(c(COCc5c6n(c7ccccc57)CN5CC7C=C(CC)C5C6(C(=O)OC)C7)c5ccccc54)C(C(=O)OC)(C2)C13,GI50,[3],> 100 µM (inactive)
same,GI50,[4],> 100 µM (inactive)
same,GI50,[5],47.2 µM (inactive)
same,GI50,[6],> 100 µM (inactive)
same,GI50,[8],> 100 µM (inactive)
